Measurements from article PMC9739695, “Water-Soluble Salts Based on Benzofuroxan Derivatives—Synthesis and Biological Activity” (International Journal of Molecular Sciences, 2022).
Like-named read-outs stand apart in the source and are kept apart here.

Key:
rice seeds = test: Pre-sowing seed treatment, sowing qualities of rice seeds; format: in vivo; conditions: for germination energy: control 71.4; for laboratory germination: control 95.2
Protocol: When evaluating the effectiveness of treatment of wheat, alfalfa, barley, rice, and sorghum seeds as fungicidal and bactericidal agents with preparation compounds at concentrations of 10, 20, and 40 mmol, their effect on the suppression of seed infection was evaluated.
[…] The sowing qualities were evaluated (germination energy for 3–4 days, laboratory germination for 7–8 days) according to GOST 12038-84 [60]. Sowing qualities of seeds were determined in wet chambers. According to the sample, 50 seeds were taken in 4-fold repetition.

[1] = tested on: A549 (adenocarcinomic human alveolar basal epithelial cells); test: Cell viability, MTT test; format: cell-based; conditions: read-out: IC50 (concentration causing 50% inhibition of cell population growth)
Protocol: (§1) In this work, the cytotoxic potential of the water-soluble salts based on benzofuroxan was determined by the effect of compounds on the survival of the cell tumor origin cultures (SH-SY5Y, Hep2, A549, HeLa) using the MTT test. To understand how the synthesized compounds can influence the healthy microenvironment in the body, the effect of substances on the viability of a normal Hek 293 cell culture was additionally evaluated.
(§2) Human cell cultures of tumor origin—SH-SY5Y (neuroblastoma), HeLa (cervical tumor), Hep-2 (larynx carcinoma), A549 (adenocarcinomic human alveolar basal epithelial cells)—and normal cell line Hek 293 (human embryonic kidneys), provided by the Laboratory of Tumor Cell Genetics of the Scientific Research Institute of Carcinogenesis, N.N. Blokhin National Medical Research Center of Oncology, as well as the Institute of Cytology of the Russian Academy of Sciences, were grown in a nutrient medium DMEM (PanEco, Moscow, Russia) and MEM (PanEco, Moscow, Russia), containing fetal bovine serum (10% by volume) (ThermoFisher Scientific, Paisley, UK), Glutamax (2 mM) (Gibco, Scotland, UK), and penicillin-streptomycin (1% by volume) (PanEco, Moscow, Russia). The cultivation was carried out at 37 °C in a humidified CO2 atmosphere (5%).
(§3) Cell viability was determined by MTT test. Cells were seeded in a 96-well plate in the amount of 1 × 10^4 cells/200µLof complete nutrient medium and cultured at 37 °C in CO2 (5%). After 24 h of incubation, various concentrations of test compounds in the range from 0.1 to 100 μM, were added to the cell cultures, and then the cells were cultured under the same conditions for 24 and 72 h. For each concentration, the experiment was carried out in triplicate.
(§4) All compounds were dissolved in DMSO, then diluted with the medium to the required concentration. […] The DMSO was also added to the control wells in a volume of 1%. After the incubation time, MTT (3-(4,5-dimethylthiazol-2-yl)-2,5-diphenyltetrazolium bromide, 5 mg/mL) was added to each well and plates were additionally incubated for 2 h (until the characteristic color appeared).
(§5) Using a plate analyzer (Cytation3, BioTech Instruments Inc., Winooski, VT, USA), the optical density was determined at 530 nm. The concentration value causing 50% inhibition of cell population growth (IC50) was determined from dose-dependent curves.

HeLa (cervical tumor) = test: Cell viability, MTT test; format: cell-based; conditions: Homo sapiens, read-out: IC50 (concentration causing 50% inhibition of cell population growth)
Protocol: as §1, §2, §3, §4, §5

Hep-2 (larynx carcinoma) = test: Cell viability, MTT test; format: cell-based; conditions: Homo sapiens, read-out: IC50 (concentration causing 50% inhibition of cell population growth)
Protocol: as §1, §2, §3, §4, §5

[2] = Acute toxicity, single intraperitoneal administration; format: in vivo; conditions: male, BDF1 [DBA2 × C57Bl6] hybrid, mouse, in vivo, ip, BDF1 mice, single intraperitoneal administration
Protocol: (§6) To determine LD50, a curve of increasing toxicity was built with increasing dose, based on which the following parameters were additionally determined: MTD, LD16, LD84 and LD100.
(§7) In the experiment, clinically healthy animals were used, which were kept in the same conditions with a 12-h light and free access to water and food. Each experimental group included six animals. […] Control animals received 0.9% NaCl solution. Animals were monitored continuously for 4 h on the first day after administration of the test compounds. […] Calculation of toxic doses was performed using probit analysis.

BDF1 mice = test: as above; format: in vivo
Protocol: as §6, §7

[3] = tested on: murine leukemia P388 in BDF1 mice; test: Antitumor activity in vivo, transplanted murine leukemia P388
Protocol: The study of the antitumor activity of compounds 4e and 4g was carried out using transplanted experimental murine tumor leukemia P388. In the experiment, concentrations from 1.25 to 10 mg/kg were used for 4e, and from 0.625 to 5 mg/kg for 4g. The concentrations used correspond to values from 1/8 MPD to MPD for the studied compounds.
Studies of antitumor activity were carried out on hybrid male mice BDF1 [DBA2×C57Bl6] weighing from 22 to 24 g. In the experiment, clinically healthy animals were used, which were kept in the same conditions with a 12-h light and free access to water and food. Each experimental group included six animals. Transplantation of mouse leukemia P388 was performed intraperitoneally with a concentration of 10^6 cells in 200μLof 0.9% NaCl solution per animal. Compounds 4e and 4g were dissolved in 0.9% NaCl solution and administered intraperitoneally once in the dose range 1.25–10 mg/kg and 0.625–5 mg/kg, respectively. The compounds were administered the next day after tumor cell transplantation. Control animals received 0.9% NaCl solution. The effectiveness of therapy was assessed by the increase in the average life span (ILS, %) of the animals.

[4] = single intraperitoneal administration, doses given in mg/kg, probit analysis

O=[N+]([O-])c1c(Cl)cc2c(no[n+]2[O-])c1NCCCN1CCOCC1 [4e, 6-chloro-4-(3-(morpholino-4-ium)propylamino)-5-nitrobenzo[c][1,2,5]oxadiazole 1-oxide chloride]
germination energy (rice seeds; 10 mmol): 38% | laboratory germination (rice seeds; 10 mmol): 38% | sowing qualities of seeds compared with control (rice seeds; 20 mmol): better results than the control | germination energy (rice seeds; 20 mmol): 98.5% | laboratory germination (rice seeds; 20 mmol): 99% | sowing qualities of seeds compared with control (rice seeds; 40 mmol): better results than the control | germination energy (rice seeds; 40 mmol): 99% | laboratory germination (rice seeds; 40 mmol): 99% | IC50 ([1]; A549, 24 h): 90.2 ± 3.43 µM | IC50 ([1]; A549, 72 h): 77.1 ± 1.36 µM | IC50 (HeLa (cervical tumor); 24 h): > 100 µM | IC50 (HeLa (cervical tumor); 72 h): 93.8 ± 2.53 µM | IC50 (Hep-2 (larynx carcinoma); HEp-2, 24 h): 83 ± 1.37 µM | IC50 (Hep-2 (larynx carcinoma); HEp-2, 72 h): 70.21 ± 0.54 µM | MTD at 14 days ([2]; doses given in mg/kg): 10 mg/kg | LD50 at 14 days ([2]; probit analysis): 22 ± 1.33 mg/kg | toxicity class from acute toxicity study (BDF1 mice; single i.p.): highly toxic | Body Weight (BDF1 mice; single i.p. 10 mg/kg, 0 Day, control 21.55 ± 0.28): 20.25 ± 0.39 g | Body Weight (BDF1 mice; single i.p. 10 mg/kg, 1 Day, control 21.43 ± 0.56): 20.39 ± 0.47 g | Body Weight (BDF1 mice; single i.p. 10 mg/kg, 2 Days, control 21.67 ± 0.77): 20.51 ± 0.40 g | Body Weight (BDF1 mice; single i.p. 10 mg/kg, 3 Days, control 21.99 ± 0.79): 20.88 ± 0.31 g | Body Weight (BDF1 mice; single i.p. 10 mg/kg, 7 Days, control 22.80 ± 0.44): 21.58 ± 0.51 g | Body Weight (BDF1 mice; single i.p. 10 mg/kg, 14 Days, control 23.96 ± 0.68): 22.12 ± 0.62 g | Body Weight (BDF1 mice; single i.p. 15 mg/kg, 0 Day, control 21.55 ± 0.28): 21.48 ± 0.47 g | Body Weight (BDF1 mice; single i.p. 15 mg/kg, 1 Day, control 21.43 ± 0.56): 21.45 ± 0.51 g | Body Weight (BDF1 mice; single i.p. 15 mg/kg, 2 Days, control 21.67 ± 0.77): 21.56 ± 0.49 g | Body Weight (BDF1 mice; single i.p. 15 mg/kg, 3 Days, control 21.99 ± 0.79): 21.62 ± 0.59 g | Body Weight (BDF1 mice; single i.p. 15 mg/kg, 7 Days, control 22.80 ± 0.44): 22.02 ± 0.47 g | Body Weight (BDF1 mice; single i.p. 15 mg/kg, 14 Days, control 23.96 ± 0.68): 22.66 ± 0.38 g | Body Weight (BDF1 mice; single i.p. 20 mg/kg, 0 Day, control 21.55 ± 0.28): 21.45 ± 0.52 g | Body Weight (BDF1 mice; single i.p. 20 mg/kg, 1 Day, control 21.43 ± 0.56): 21.44 ± 0.71 g | Body Weight (BDF1 mice; single i.p. 20 mg/kg, 2 Days, control 21.67 ± 0.77): 21.88 ± 0.81 g | Body Weight (BDF1 mice; single i.p. 20 mg/kg, 3 Days, control 21.99 ± 0.79): 22.02 ± 0.74 g | Body Weight (BDF1 mice; single i.p. 20 mg/kg, 7 Days, control 22.80 ± 0.44): 22.74 ± 0.58 g | Body Weight (BDF1 mice; single i.p. 20 mg/kg, 14 Days, control 23.96 ± 0.68): 23.01 ± 0.65 g | Body Weight (BDF1 mice; single i.p. 25 mg/kg, 0 Day, control 21.55 ± 0.28): 22.27 ± 0.29 g | Body Weight (BDF1 mice; single i.p. 25 mg/kg, 1 Day, control 21.43 ± 0.56): 21.98 g | Body Weight (BDF1 mice; single i.p. 25 mg/kg, 2 Days, control 21.67 ± 0.77): 21.81 g | Body Weight (BDF1 mice; single i.p. 25 mg/kg, 3 Days, control 21.99 ± 0.79): 21.89 g | Body Weight (BDF1 mice; single i.p. 25 mg/kg, 7 Days, control 22.80 ± 0.44): 22.15 g | Body Weight (BDF1 mice; single i.p. 25 mg/kg, 14 Days, control 23.96 ± 0.68): 22.74 g | Body Weight (BDF1 mice; single i.p. 30 mg/kg, 0 Day, control 21.55 ± 0.28): 21.92 ± 0.13 g | time after administration at which death of animals began (BDF1 mice; single i.p., doses of 15–30 mg/kg): 5 to 30 min | LD100 (BDF1 mice; single intraperitoneal administration, doses given in mg/kg): 30 | LD16 (BDF1 mice; [4]): 18.2 | LD84 (BDF1 mice; [4]): 24.6 | increase in the average lifespan (ILS) ([3]; single i.p. injection, 2.5 mg/kg): 28% | lifespan of animals ([3]; single i.p., doses from 1/8 MPD to MPD, control animals all die by day 11): up to 16 days
